According to patent publication US7067508B2, “Diaminedithiol derivatives and radiorhenium or radiotechnetium complex thereof; a liver cancer-treating composition comprising the radiorhenium complex and lipiodol; and a kit for preparation of the liver cancer-treating composition” (Seoul National University Industry Foundation, priority 2001, dated 2006):

Assay: Biodistribution of 188Re-labelled compounds in lipiodol solution in mice after tail vein injection
Format: in vivo
Conditions: mice (ICR)
Description: To the ^188Re-labelled reaction mixture prepared in the foregoing Examples 4 to 6, lipiodol (5 ml) was added, mixed well and the solution was centrifuged at 3000 rpm for 10 min. The supernatant was removed and 2 ml saline was added. After mixing well, the resulting solution was centrifuged again at 3000 rpm for 10 min and the supernatant was removed to recover a lower phase of lipiodol.
Mice (ICR) were administered with an injection of ^188Re-labelled compound in lipiodol solution which was prepared in the Example 7 via the tail vein. Radioactivity distributed in tissues and weight of each tissue were measured to calculate the percentage of radioactivity per gram of unit tissue relative to total radioactivity administered.
As radiation accumulation mechanism in the lung and the liver cancer are similar, it is convenient to detect the level of radiation accumulating in the lung of a mouse suffering from liver cancer. […] Therefore, it can be inferred that a radiorhenium complex of a diaminedithiol derivative having a long side chain is effective for treating liver cancer.

## CCCCCCCC[N+]12CC[N]3CC(C)(C)[S][188Re-]31(=[O])[S]C(C)(C)C2 (stereo not shown) [^188Re-OTDD]
10 min post-injection
  Biodistribution, radioactivity in Blood: 5.2 ± 1.8 percentage of radioactivity per gram
  Biodistribution, radioactivity in Fat: 3.6 ± 0.7 percentage of radioactivity per gram
  Biodistribution, radioactivity in Heart: 6.3 ± 1.7 percentage of radioactivity per gram
  Biodistribution, radioactivity in Kidney: 8.0 ± 1.2 percentage of radioactivity per gram
  Biodistribution, radioactivity in Liver: 15.1 ± 2.4 percentage of radioactivity per gram
  Biodistribution, radioactivity in Lung: 138.4 ± 19.8 percentage of radioactivity per gram
  Biodistribution, radioactivity in Muscle: 1.5 ± 0.2 percentage of radioactivity per gram
  Biodistribution, radioactivity in Small intestine: 3.6 ± 0.3 percentage of radioactivity per gram
  Biodistribution, radioactivity in Spleen: 2.6 ± 0.3 percentage of radioactivity per gram
  Biodistribution, radioactivity in Stomach: 3.5 ± 1.3 percentage of radioactivity per gram
30 min post-injection
  Biodistribution, radioactivity in Blood: 3.8 ± 0.4 percentage of radioactivity per gram
  Biodistribution, radioactivity in Fat: 2.2 ± 0.2 percentage of radioactivity per gram
  Biodistribution, radioactivity in Heart: 4.4 ± 0.3 percentage of radioactivity per gram
  Biodistribution, radioactivity in Kidney: 6.6 ± 0.3 percentage of radioactivity per gram
  Biodistribution, radioactivity in Liver: 21.6 ± 4.9 percentage of radioactivity per gram
  Biodistribution, radioactivity in Lung: 97.4 ± 20.7 percentage of radioactivity per gram
  Biodistribution, radioactivity in Muscle: 1.2 ± 0.2 percentage of radioactivity per gram
  Biodistribution, radioactivity in Small intestine: 8.0 ± 2.0 percentage of radioactivity per gram
  Biodistribution, radioactivity in Spleen: 2.3 ± 0.1 percentage of radioactivity per gram
  Biodistribution, radioactivity in Stomach: 12.9 ± 6.6 percentage of radioactivity per gram
1 hr post-injection
  Biodistribution, radioactivity in Blood: 3.1 ± 0.5 percentage of radioactivity per gram
  Biodistribution, radioactivity in Fat: 1.6 ± 0.4 percentage of radioactivity per gram
  Biodistribution, radioactivity in Heart: 2.7 ± 1.0 percentage of radioactivity per gram
  Biodistribution, radioactivity in Kidney: 5.6 ± 0.9 percentage of radioactivity per gram
  Biodistribution, radioactivity in Liver: 20.1 ± 3.3 percentage of radioactivity per gram
  Biodistribution, radioactivity in Lung: 87.0 ± 13.2 percentage of radioactivity per gram
  Biodistribution, radioactivity in Muscle: 0.9 ± 0.2 percentage of radioactivity per gram
  Biodistribution, radioactivity in Small intestine: 13.0 ± 3.7 percentage of radioactivity per gram
  Biodistribution, radioactivity in Spleen: 1.9 ± 0.6 percentage of radioactivity per gram
  Biodistribution, radioactivity in Stomach: 11.1 ± 3.1 percentage of radioactivity per gram
3 hr post-injection
  Biodistribution, radioactivity in Blood: 2.8 ± 0.3 percentage of radioactivity per gram
  Biodistribution, radioactivity in Fat: 1.3 ± 0.4 percentage of radioactivity per gram
  Biodistribution, radioactivity in Heart: 1.9 ± 0.4 percentage of radioactivity per gram
  Biodistribution, radioactivity in Kidney: 4.0 ± 0.5 percentage of radioactivity per gram
  Biodistribution, radioactivity in Liver: 19.7 ± 6.7 percentage of radioactivity per gram
  Biodistribution, radioactivity in Lung: 61.6 ± 10.0 percentage of radioactivity per gram
  Biodistribution, radioactivity in Muscle: 0.5 ± 0.1 percentage of radioactivity per gram
  Biodistribution, radioactivity in Small intestine: 23.4 ± 0.3 percentage of radioactivity per gram
  Biodistribution, radioactivity in Spleen: 1.8 ± 0.3 percentage of radioactivity per gram
  Biodistribution, radioactivity in Stomach: 15.5 ± 6.6 percentage of radioactivity per gram
24 hr post-injection
  Biodistribution, radioactivity in Blood: 0.6 ± 0.0 percentage of radioactivity per gram
  Biodistribution, radioactivity in Fat: 0.4 ± 0.1 percentage of radioactivity per gram
  Biodistribution, radioactivity in Heart: 0.7 ± 0.1 percentage of radioactivity per gram
  Biodistribution, radioactivity in Kidney: 1.5 ± 0.4 percentage of radioactivity per gram
  Biodistribution, radioactivity in Liver: 7.3 ± 1.5 percentage of radioactivity per gram
  Biodistribution, radioactivity in Lung: 22.8 ± 3.3 percentage of radioactivity per gram
  Biodistribution, radioactivity in Muscle: 0.2 ± 0.0 percentage of radioactivity per gram
  Biodistribution, radioactivity in Small intestine: 19.8 ± 12.0 percentage of radioactivity per gram
  Biodistribution, radioactivity in Spleen: 2.0 ± 2.0 percentage of radioactivity per gram
  Biodistribution, radioactivity in Stomach: 3.6 ± 1.8 percentage of radioactivity per gram

## CCCCCCCCCCCCCCCC[N+]12CC[N]3CC(C)(C)[S][188Re-]31(=[O])[S]C(C)(C)C2 (stereo not shown) [^188Re-HTDD]
10 min post-injection
  Biodistribution, radioactivity in Blood: 8.1 ± 1.5 percentage of radioactivity per gram
  Biodistribution, radioactivity in Fat: 3.9 ± 1.5 percentage of radioactivity per gram
  Biodistribution, radioactivity in Heart: 9.4 ± 3.0 percentage of radioactivity per gram
  Biodistribution, radioactivity in Kidney: 7.0 ± 1.8 percentage of radioactivity per gram
  Biodistribution, radioactivity in Liver: 11.6 ± 1.7 percentage of radioactivity per gram
  Biodistribution, radioactivity in Lung: 211.3 ± 30.0 percentage of radioactivity per gram
  Biodistribution, radioactivity in Muscle: 1.9 ± 0.3 percentage of radioactivity per gram
  Biodistribution, radioactivity in Small intestine: 3.4 ± 0.5 percentage of radioactivity per gram
  Biodistribution, radioactivity in Spleen: 3.6 ± 0.8 percentage of radioactivity per gram
  Biodistribution, radioactivity in Stomach: 7.4 ± 1.6 percentage of radioactivity per gram
30 min post-injection
  Biodistribution, radioactivity in Blood: 9.1 ± 5.3 percentage of radioactivity per gram
  Biodistribution, radioactivity in Fat: 2.8 ± 0.5 percentage of radioactivity per gram
  Biodistribution, radioactivity in Heart: 6.0 ± 1.1 percentage of radioactivity per gram
  Biodistribution, radioactivity in Kidney: 6.5 ± 0.9 percentage of radioactivity per gram
  Biodistribution, radioactivity in Liver: 15.9 ± 1.6 percentage of radioactivity per gram
  Biodistribution, radioactivity in Lung: 185.6 ± 20.9 percentage of radioactivity per gram
  Biodistribution, radioactivity in Muscle: 1.5 ± 0.2 percentage of radioactivity per gram
  Biodistribution, radioactivity in Small intestine: 6.5 ± 0.6 percentage of radioactivity per gram
  Biodistribution, radioactivity in Spleen: 3.1 ± 0.2 percentage of radioactivity per gram
  Biodistribution, radioactivity in Stomach: 15.1 ± 2.9 percentage of radioactivity per gram
1 hr post-injection
  Biodistribution, radioactivity in Blood: 4.2 ± 0.5 percentage of radioactivity per gram
  Biodistribution, radioactivity in Fat: 2.7 ± 0.6 percentage of radioactivity per gram
  Biodistribution, radioactivity in Heart: 4.7 ± 0.9 percentage of radioactivity per gram
  Biodistribution, radioactivity in Kidney: 6.1 ± 1.4 percentage of radioactivity per gram
  Biodistribution, radioactivity in Liver: 14.4 ± 2.5 percentage of radioactivity per gram
  Biodistribution, radioactivity in Lung: 177.8 ± 18.4 percentage of radioactivity per gram
  Biodistribution, radioactivity in Muscle: 1.1 ± 0.2 percentage of radioactivity per gram
  Biodistribution, radioactivity in Small intestine: 9.3 ± 1.0 percentage of radioactivity per gram
  Biodistribution, radioactivity in Spleen: 3.0 ± 0.8 percentage of radioactivity per gram
  Biodistribution, radioactivity in Stomach: 21.0 ± 1.7 percentage of radioactivity per gram
3 hr post-injection
  Biodistribution, radioactivity in Blood: 2.8 ± 0.5 percentage of radioactivity per gram
  Biodistribution, radioactivity in Fat: 2.0 ± 0.6 percentage of radioactivity per gram
  Biodistribution, radioactivity in Heart: 4.5 ± 0.8 percentage of radioactivity per gram
  Biodistribution, radioactivity in Kidney: 6.2 ± 1.2 percentage of radioactivity per gram
  Biodistribution, radioactivity in Liver: 9.0 ± 1.8 percentage of radioactivity per gram
  Biodistribution, radioactivity in Lung: 157.3 ± 28.6 percentage of radioactivity per gram
  Biodistribution, radioactivity in Muscle: 0.8 ± 0.2 percentage of radioactivity per gram
  Biodistribution, radioactivity in Small intestine: 12.2 ± 1.3 percentage of radioactivity per gram
  Biodistribution, radioactivity in Spleen: 2.7 ± 0.1 percentage of radioactivity per gram
  Biodistribution, radioactivity in Stomach: 19.3 ± 4.0 percentage of radioactivity per gram
24 hr post-injection
  Biodistribution, radioactivity in Blood: 0.6 ± 0.1 percentage of radioactivity per gram
  Biodistribution, radioactivity in Fat: 0.8 ± 0.3 percentage of radioactivity per gram
  Biodistribution, radioactivity in Heart: 2.2 ± 0.8 percentage of radioactivity per gram
  Biodistribution, radioactivity in Kidney: 3.3 ± 0.7 percentage of radioactivity per gram
  Biodistribution, radioactivity in Liver: 5.6 ± 1.0 percentage of radioactivity per gram
  Biodistribution, radioactivity in Lung: 118.0 ± 19.5 percentage of radioactivity per gram
  Biodistribution, radioactivity in Muscle: 0.4 ± 0.1 percentage of radioactivity per gram
  Biodistribution, radioactivity in Small intestine: 6.2 ± 3.4 percentage of radioactivity per gram
  Biodistribution, radioactivity in Spleen: 9.3 ± 5.2 percentage of radioactivity per gram
  Biodistribution, radioactivity in Stomach: 5.5 ± 1.7 percentage of radioactivity per gram
